One experiment relates to Pyricularia oryzae. It counts as in vivo. The settings on record: 200 ppm spray on rice (Koshihikari, 3 leaf stage), inoculated next day; lesion numbers on third leaves after 7 days in green house, graded by Table 5.
The test system of experiment [1] is Colletotrichum lagenarium. The settings on record: 200 ppm spray on cucumber (3 leaf stage), inoculated next day; lesion numbers on first and second leaves after 7 days in green house, graded by Table 5.

Turning to `COc1ccc(-c2cc(CNC(=O)c3ccc(C)cc3)on2)c(F)c1` [III-74, N-{[3-(2-fluoro-4-methoxyphenyl)-5-isoxazolyl]methyl}-4-methylbenzamide], the “Evaluation (effect for rice blast)” value in the experiment with Pyricularia oryzae was 5 (0). Besides, the “Evaluation (effect for cucumber anthracnose)” value in experiment [1] is recorded as 5 (0).

For `Cc1ccc(C(=O)NCc2cc(-c3ccccc3)no2)cc1` [III-107, N-[(3-phenyl-5-isoxazolyl)methyl]-4-methylbenzamide], in the experiment with Pyricularia oryzae, the “Evaluation (effect for rice blast)” value is 5 (0). Moreover, the “Evaluation (effect for cucumber anthracnose)” value in experiment [1] is 5 (0).

In the case of `CC(C)(C)c1ccc(C(=O)NCc2cc(-c3ccccc3)no2)cc1` [III-108, N-[(3-phenyl-5-isoxazolyl)methyl]-4-t-butylbenzamide], the “Evaluation (effect for rice blast)” value in the experiment with Pyricularia oryzae is listed as 2 (11˜20). In addition, the “Evaluation (effect for cucumber anthracnose)” value in experiment [1] is 3 (6˜10).

As to `COc1ccccc1C(=O)NCc1cc(-c2ccccc2)no1` [III-109, N-[(3-phenyl-5-isoxazolyl)methyl]-2-methoxybenzamide], the “Evaluation (effect for rice blast)” value in the experiment with Pyricularia oryzae is 4 (1˜5). Moreover, the “Evaluation (effect for cucumber anthracnose)” value in experiment [1] is recorded as 5 (0).

Take `COc1ccc(C(=O)NCc2cc(-c3ccccc3)no2)cc1` [III-111, N-[(3-phenyl-5-isoxazolyl)methyl]-4-methoxy benzamide]: in the experiment on Pyricularia oryzae, the “Evaluation (effect for rice blast)” value is on record as 5 (0). For the same compound, the “Evaluation (effect for cucumber anthracnose)” value in experiment [1] is recorded as 5 (0).

On to `O=C(NCc1cc(-c2ccccc2)no1)c1ccc(F)cc1` [III-121, N-[(3-phenyl-5-isoxazolyl)methyl]-4-fluorobenzamide], for which the “Evaluation (effect for rice blast)” value with Pyricularia oryzae is listed as 5 (0). The “Evaluation (effect for cucumber anthracnose)” value in experiment [1] was 5 (0).

For the compound `O=C(NCc1cc(-c2ccccc2)no1)c1ccccc1Cl` [III-122, N-[(3-phenyl-5-isoxazolyl)methyl]-2-chlorobenzamide], the “Evaluation (effect for rice blast)” value in the experiment on Pyricularia oryzae is 4 (1˜5). Further, in experiment [1], the “Evaluation (effect for cucumber anthracnose)” value is 4 (1˜5).

As for `O=C(NCc1cc(-c2ccccc2)no1)c1cccc(Cl)c1` [III-123, N-[(3-phenyl-5-isoxazolyl)methyl]-3-chlorobenzamide], the “Evaluation (effect for rice blast)” value in the experiment on Pyricularia oryzae was 5 (0). In addition, the “Evaluation (effect for cucumber anthracnose)” value in experiment [1] is given as 5 (0).

For `O=C(NCc1cc(-c2ccccc2)no1)c1ccc(Cl)cc1` [III-124, N-[(3-phenyl-5-isoxazolyl)methyl]-4-chlorobenzamide], in the experiment with Pyricularia oryzae, the “Evaluation (effect for rice blast)” value is 5 (0). Moreover, the “Evaluation (effect for cucumber anthracnose)” value in experiment [1] was 4 (1˜5).

Consider `O=C(NCc1cc(-c2ccccc2)no1)c1ccc(C(F)(F)F)cc1` [III-130, N-[(3-phenyl-5-isoxazolyl)methyl]-4-trifluoromethylbenzamide], for which the “Evaluation (effect for rice blast)” value in the experiment on Pyricularia oryzae is reported as 4 (1˜5). Moreover, the “Evaluation (effect for cucumber anthracnose)” value in experiment [1] was 4 (1˜5).

On to `N#Cc1ccc(C(=O)NCc2cc(-c3ccccc3)no2)cc1` [III-133, N-[(3-phenyl-5-isoxazolyl)methyl]-4-cyanobenzamide], for which the “Evaluation (effect for rice blast)” value in the experiment on Pyricularia oryzae is 4 (1˜5). The “Evaluation (effect for cucumber anthracnose)” value in experiment [1] was 4 (1˜5).

On to `Cc1ccc(-c2cc(CNC(=O)c3ccccc3O)on2)cc1` [III-134, N-[(3-(4-tolyl)-5-isoxazolyl)methyl]-2-hydroxybenzamide], for which the “Evaluation (effect for rice blast)” value in the experiment on Pyricularia oryzae is on record as 3 (6˜10). Besides, in experiment [1], the “Evaluation (effect for cucumber anthracnose)” value is 5 (0).

For the compound `O=C(NCc1cc(-c2ccccc2)no1)c1ccc([N+](=O)[O-])cc1` [III-137, N-[(3-phenyl-5-isoxazolyl)methyl]-4-nitrobenzamide], in the experiment on Pyricularia oryzae, the “Evaluation (effect for rice blast)” value is on record as 4 (1˜5). Besides, the “Evaluation (effect for cucumber anthracnose)” value in experiment [1] is 5 (0).

Turning to `O=C(NCc1cc(-c2ccccc2)no1)c1ccc(OC(F)(F)F)cc1` [III-139, N-[(3-phenyl-5-isoxazolyl)methyl]-4-trifluoromethoxybenzamide], the “Evaluation (effect for rice blast)” value with Pyricularia oryzae was 5 (0). The “Evaluation (effect for cucumber anthracnose)” value in experiment [1] is on record as 5 (0).

On to `COc1ccc(C(=O)NCc2cc(-c3ccccc3)no2)cc1OC` [III-156, N-[(3-phenyl-5-isoxazolyl)methyl]-3,4-dimethoxybenzamide], for which the “Evaluation (effect for rice blast)” value in the experiment on Pyricularia oryzae is listed as 4 (1˜5). In addition, the “Evaluation (effect for cucumber anthracnose)” value in experiment [1] was 4 (1˜5).

With `Cc1ccc(-c2cc(CNC(=O)c3ccc(C)c(F)c3)on2)cc1` [III-162, N-[(3-(4-tolyl)-5-isoxazolyl)methyl]-3-fluoro-4-methylbenzamide], the “Evaluation (effect for rice blast)” value in the experiment with Pyricularia oryzae is 5 (0). Moreover, the “Evaluation (effect for cucumber anthracnose)” value in experiment [1] is 5 (0).

In the case of `O=C(NCc1cc(-c2ccccc2)no1)c1ccccn1` [III-174, (3-phenyl-5-isoxazolyl)methylaminocarbonyl-2-pyridine], the “Evaluation (effect for rice blast)” value in the experiment on Pyricularia oryzae is 4 (1˜5). Moreover, the “Evaluation (effect for cucumber anthracnose)” value in experiment [1] is 4 (1˜5).

As to `O=C(NCc1cc(-c2ccccc2)no1)c1cccs1` [III-177, (3-phenyl-5-isoxazolyl)methylaminocarbonyl-2-thiophene], the “Evaluation (effect for rice blast)” value with Pyricularia oryzae is listed as 4 (1˜5). Also, the “Evaluation (effect for cucumber anthracnose)” value in experiment [1] is given as 4 (1˜5).

On to `O=C(NCc1cc(-c2ccccc2)no1)c1ccc2c(c1)OCO2` [III-180, 5-(3-phenyl-5-isoxazolyl)methylaminocarbonyl-1,3-benzodioxol], for which, in the experiment with Pyricularia oryzae, the “Evaluation (effect for rice blast)” value is given as 5 (0). Moreover, the “Evaluation (effect for cucumber anthracnose)” value in experiment [1] is 5 (0).

With `O=C(/C=C/c1ccccc1)NCc1cc(-c2ccccc2)no1` [III-201, (E)-N-[(3-phenyl-5-isoxazolyl)methyl]-3-phenylpropenamide], the “Evaluation (effect for rice blast)” value with Pyricularia oryzae is on record as 5 (0). The “Evaluation (effect for cucumber anthracnose)” value in experiment [1] is 5 (0).

For the compound `O=C(NCc1cc(-c2ccccc2)no1)N1CCc2ccccc21` [III-208, N-[(3-phenyl-5-isoxazolyl)methylaminocarbonyl]indoline], in the experiment with Pyricularia oryzae, the “Evaluation (effect for rice blast)” value is 4 (1˜5). In addition, the “Evaluation (effect for cucumber anthracnose)” value in experiment [1] is recorded as 4 (1˜5).

`Cc1ccc(C(=O)NCc2cc(/C=C/c3ccccc3)no2)cc1` [III-210, N-{[3-(2-phenylethenyl)-5-isoxazolyl)methyl]-4-methylbenzamide]: the “Evaluation (effect for rice blast)” value in the experiment on Pyricularia oryzae was 5 (0). Besides, the “Evaluation (effect for cucumber anthracnose)” value in experiment [1] is on record as 5 (0).

`CO/N=C/c1ccc(-c2cc(CNC(=O)c3ccc(C)cc3)on2)cc1` [III-214]: in the experiment with Pyricularia oryzae, the “Evaluation (effect for rice blast)” value was 4 (1˜5). Besides, the “Evaluation (effect for cucumber anthracnose)” value in experiment [1] was 5 (0).

On to `COc1ccc(C(=O)NCc2cc(-c3ccc(OC)cc3F)no2)cc1` [III-215, N-{[3-(2-fluoro-4-methoxyphenyl)-5-isoxazolyl]methyl}-4-methoxylbenzamide], for which the “Evaluation (effect for rice blast)” value with Pyricularia oryzae is reported as 5 (0). Further, the “Evaluation (effect for cucumber anthracnose)” value in experiment [1] was 5 (0).

As to `COc1ccc(C(=O)NCc2cc(C=C(C)C)no2)cc1` [III-216, N-{[3-(2-methyl-1-propenyl)-5-isoxazolyl]methyl}-4-methoxylbenzamide], in the experiment with Pyricularia oryzae, the “Evaluation (effect for rice blast)” value was 4 (1˜5). Also, in experiment [1], the “Evaluation (effect for cucumber anthracnose)” value was 4 (1˜5).

In the case of `Cc1ccc(C(=O)NCc2cc(-c3ccccn3)no2)cc1` [III-217, N-{[3-(2-pyridyl)-5-isoxazolyl]methyl}-4-methylbenzamide], in the experiment with Pyricularia oryzae, the “Evaluation (effect for rice blast)” value is on record as 4 (1˜5). For the same compound, the “Evaluation (effect for cucumber anthracnose)” value in experiment [1] is listed as 4 (1˜5).

For `Cc1ccc(C(=O)NCc2cc(-c3cccnc3)no2)cc1` [III-218, N-{[3-(3-pyridyl)-5-isoxazolyl]methyl}-4-methylbenzamide], in the experiment with Pyricularia oryzae, the “Evaluation (effect for rice blast)” value is on record as 3 (6˜10). Moreover, the “Evaluation (effect for cucumber anthracnose)” value in experiment [1] is on record as 4 (1˜5).

Take `Cc1ccc(C(=O)NCc2cc(-c3ccncc3)no2)cc1` [III-219, N-{[3-(4-pyridyl)-5-isoxazolyl]methyl}-4-methylbenzamide]: the “Evaluation (effect for rice blast)” value in the experiment on Pyricularia oryzae is on record as 3 (6˜10). In addition, the “Evaluation (effect for cucumber anthracnose)” value in experiment [1] is given as 3 (6˜10).

In the case of `COc1ccc(C(=O)NCc2cc(-c3ccsc3)no2)cc1` [III-220, N-{[3-(3-thienyl)-5-isoxazolyl]methyl}-4-methoxylbenzamide], the “Evaluation (effect for rice blast)” value in the experiment on Pyricularia oryzae is given as 3 (6˜10). For the same compound, the “Evaluation (effect for cucumber anthracnose)” value in experiment [1] was 3 (6˜10).

Regarding `C/C=C/C=C/c1cc(CNC(=O)c2ccc(OC)cc2)on1` [III-221, N-{[3-(1,3-pentadienyl)-5-isoxazolyl]methyl}-4-methoxylbenzamide], the “Evaluation (effect for rice blast)” value in the experiment with Pyricularia oryzae is given as 2 (11˜20). The “Evaluation (effect for cucumber anthracnose)” value in experiment [1] was 2 (11˜20).

In the case of `COc1ccc(C(=O)NCc2cc(-c3cc4ccccc4n3C)no2)cc1` [III-223, N-{[3-(1-methylindol-2-yl)-5-isoxazolyl]methyl}-4-methoxybenzamide], the “Evaluation (effect for rice blast)” value in the experiment with Pyricularia oryzae is given as 5 (0). For the same compound, the “Evaluation (effect for cucumber anthracnose)” value in experiment [1] is reported as 5 (0).

In the case of `COc1ccc(C(=O)NCc2cc(-c3nc4ccccc4s3)no2)cc1` [III-224, N-{[3-(benzo[d]thiazol-2-yl)-5-isoxazolyl]methyl}-4-methoxybenzamide], the “Evaluation (effect for rice blast)” value in the experiment on Pyricularia oryzae is recorded as 2 (11˜20). In addition, the “Evaluation (effect for cucumber anthracnose)” value in experiment [1] is given as 2 (11˜20).

For the compound `COc1ccc(C(=O)NCc2cc(C(C)C)no2)cc1` [III-225, N-[(3-isopropyl-5-isoxazolyl)methyl]-4-methoxybenzamide], the “Evaluation (effect for rice blast)” value in the experiment on Pyricularia oryzae was 4 (1˜5). Further, the “Evaluation (effect for cucumber anthracnose)” value in experiment [1] is listed as 4 (1˜5).

On to `Cc1ccc(-c2cc(CNC(=O)C3CCCC3)on2)cc1` [III-227, N-{[3-(4-tolyl)-5-isoxazolyl]methyl}cyclopentanecarboxamide], for which the “Evaluation (effect for rice blast)” value in the experiment on Pyricularia oryzae is 5 (0). Further, the “Evaluation (effect for cucumber anthracnose)” value in experiment [1] was 5 (0).

For the compound `Cc1ccc(-c2cc(CNC(=O)C3CCC3)on2)cc1` [III-228, N-{[3-(4-tolyl)-5-isoxazolyl]methyl}cyclobutanecarboxamide], the “Evaluation (effect for rice blast)” value in the experiment with Pyricularia oryzae is listed as 4 (1˜5). Besides, the “Evaluation (effect for cucumber anthracnose)” value in experiment [1] was 3 (6˜10).

On to `COc1ccc(C(=O)NCc2cc(CC(C)C)no2)cc1` [III-229, N-[(3-isobutyl-5-isoxazolyl)methyl]-4-methoxybenzamide], for which the “Evaluation (effect for rice blast)” value with Pyricularia oryzae was 5 (0). For the same compound, the “Evaluation (effect for cucumber anthracnose)” value in experiment [1] was 5 (0).

These data come from patent publication US20050171358A1 (priority 2002, published 2005).
